Test results from ChEMBL document CHEMBL1155460, “Prediction of acetylcholinesterase inhibitors and characterization of correlative molecular descriptors by machine learning methods” (Eur J Med Chem, 2010).

Target: Acetylcholinesterase (Homo sapiens, UniProt P22303)
Sequence (P22303 whole entry): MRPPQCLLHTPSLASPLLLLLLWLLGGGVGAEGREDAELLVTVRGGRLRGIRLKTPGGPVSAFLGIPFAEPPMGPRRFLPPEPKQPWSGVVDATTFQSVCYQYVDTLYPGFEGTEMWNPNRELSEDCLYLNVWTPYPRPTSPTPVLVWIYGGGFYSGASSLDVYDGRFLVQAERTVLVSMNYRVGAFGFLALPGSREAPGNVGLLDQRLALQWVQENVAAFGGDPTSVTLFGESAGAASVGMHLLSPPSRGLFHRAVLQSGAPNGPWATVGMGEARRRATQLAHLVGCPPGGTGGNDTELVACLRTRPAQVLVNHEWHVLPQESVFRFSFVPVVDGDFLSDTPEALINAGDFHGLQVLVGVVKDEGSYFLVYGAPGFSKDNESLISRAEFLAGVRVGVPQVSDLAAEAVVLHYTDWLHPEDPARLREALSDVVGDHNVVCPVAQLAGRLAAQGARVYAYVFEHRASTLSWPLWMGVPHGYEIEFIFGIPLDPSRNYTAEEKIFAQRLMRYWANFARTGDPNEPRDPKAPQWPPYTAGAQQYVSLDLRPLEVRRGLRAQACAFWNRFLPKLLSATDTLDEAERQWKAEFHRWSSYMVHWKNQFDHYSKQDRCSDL

Structure (SMILES) | IC50 [µM]
O=C1c2ccccc2CCCC1CC1CCN(c2ccccc2)CC1 (stereo not given) | 15
CN(CCCNC(=O)CCc1c[nH]c2ccccc12)CCCNc1c2c(nc3ccccc13)CCCC2 | 0.147
c1ccc2c(NCCCCCCCCCNc3c4c(nc5ccccc35)CCCC4)ccnc2c1 | 0.038
O=C1c2ccc([N+](=O)[O-])cc2C(=O)N1C1CCN(Cc2ccccc2)CC1 | 27
O=C(CCc1c[nH]c2ccccc12)NCCCCCCCCNc1c2c(nc3cc(Cl)ccc13)CCCC2 | 0.0005
CCCCCCCNC(=O)Oc1ccc2c(c1)[C@@H]1CCN(CC)[C@@H]1C2 | 0.381
CN(CCOCCNC(=S)NC(=O)c1ccccc1)C1CCCCC1 | 0.013
Nc1c2c(nc3ccccc13)-c1ccccc1NCCC2 | 391
COc1cccc(CN2CCC(CCC(=O)c3ccc4c(c3)NCCCC4)CC2)c1 | 0.847
CCCN1CCc2cc(C(=O)CCC3CCN(Cc4ccccc4)CC3)ccc21 | 0.022
O=C(CCC1CCN(Cc2ccccc2)CC1)c1ccc2c(c1)CCCCN2 | 0.125
COc1ccc(NC(=S)NCCOCCN(C)Cc2cccc([N+](=O)[O-])c2)cc1OC | 1.5
c1ccc2c(NCCCCCCCCCCNc3ccncc3)c3c(nc2c1)CCCC3 | 0.176
O=[N+]([O-])c1ccc2c(Nc3ccccc3)c3c(nc2c1)CCCC3 | 4.8
NCCCCCCCCCCCCNc1c2c(nc3ccccc13)CCCC2 | 0.18
CCc1cc(=NCCC2CCN(Cc3ccccc3)CC2)[nH]nc1-c1ccccc1 | 0.027
COc1cccc(N(CCC2CCN(Cc3ccccc3)CC2)C(C)=O)c1 | 0.046
Nc1c2ccccc2nc2c1cnc1cc(Cl)ccc12 | 1000
Cc1cc(-c2ccc3c(c2)OCO3)nnc1NCCN1CCCCC1 | 1
CN1CCCCc2ccc(C(=O)CCC3CCN(Cc4ccccc4)CC3)cc21 | 0.081
COc1ccc2c(c1)CCCc1c-2nc2ccccc2c1N | 68.8
O=C(CCCc1c[nH]c2ccccc12)NCCCCCNc1c2c(nc3cc(Cl)ccc13)CCCC2 | 0.0003
CN1CCC(CCN2C(=O)c3ccc([N+](=O)[O-])cc3C2=O)CC1 | 6.8
CCCCC1=C(C)Cc2c1nc1ccccc1c2N | 25
Nc1c2c(nc3ccccc13)CCC2 | 0.056
O=C(CCC1CCN(Cc2cccc(F)c2)CC1)c1ccc2c(c1)CCN2 | 0.016
Clc1ccc2c(NCCCCCCNc3c4c(nc5cc(Cl)ccc35)CCCC4)c3c(nc2c1)CCCC3 | 0.0006

Structure (SMILES) | IC50 [µM]
O=C(CCC1CCN(Cc2ccccc2)CC1)c1ccc2c(c1)CCCN2c1ccccc1 | 0.054
CN(CCOCCNC(=S)NC(=O)c1ccccc1)Cc1ccccc1 | 0.12
Clc1ccc2c(Nc3ccccc3)c3c(nc2c1)CCCC3 | 0.17
c1ccc2c(NCCCCCCCNc3c4c(nc5ccccc35)CCC4)c3c(nc2c1)CCC3 | 0.075
O=C(CC1S/C(=N/c2ccc(C3CCCCC3)cc2)NC1=O)Nc1ccc(OC(F)(F)F)cc1 (stereo not given) | 2.9
CCCCCCNC(=O)Oc1cccc(CN(C)CCCOc2ccc3c(=O)ccoc3c2)c1 | 0.021
c1ccc(-c2ccc(NCCN3CCOCC3)nn2)cc1 | 1000
CCCCCCNC(=O)Oc1ccc2c(c1)[C@@H]1CCN(CC)[C@@H]1C2 | 0.208
c1ccc(CN2CCC(Nc3ccc(-c4ccccc4)nn3)CC2)cc1 | 65
O=C(CCc1c[nH]c2ccccc12)NCCCCCCCCCCNc1c2c(nc3cc(Cl)ccc13)CCCC2 | 0.0219
c1ccc(-c2ncc(NCN3CCCCC3)nn2)cc1 | 57
Nc1c2c(nc3ccccc13)CCCc1ccccc1-2 | 38.2
COc1cc2c(cc1OC)CC(CC1CCN(c3ccccc3)CC1)=C2 | 4.4
CCCCCCCNC(=O)Oc1ccc2c(c1)[C@]1(C)CCN(CCC)[C@@H]1C2 | 0.093
CC(=O)N(C)c1cccc2n1cc(-c1ccc(OC(=O)N(C)C)cc1)[n+]2C | 24.5
O=C(c1ccc([N+](=O)[O-])cc1)N(CCC1CCN(Cc2ccccc2)CC1)c1ccccc1 | 0.0054
CCCCCCCNC(=O)Oc1ccc2c(c1)C1CCN(CCC)C1C2 (stereo not given) | 0.629
CCCCCCNC(=O)Oc1ccc2c(c1)C1CCN(CCC)C1C2 (stereo not given) | 0.546
Cc1c(/N=C/c2ccccc2O)cc2c(c1N)C(C)(C)CC2(C)C | 16
CCCCNC(=O)Oc1ccc2c(c1)[C@]1(C)CCN(CC)[C@@H]1C2 | 0.09
c1ccc(CN2CCC(CNc3n[nH]c4ccccc34)CC2)cc1 | 0.12
CC(Cc1ccc(O)cc1)C1CCC(C)C(c2ccc(O)cc2)C1 (stereo not given) | 0.62
c1ccc(CN2CCC(CNc3ccc(-c4ccccc4)nn3)CC2)cc1 | 56
O=C1CNc2cc3onc(CCC4CCN(Cc5ccccc5)CC4)c3cc2C1 | 0.00048
CNC(=O)Oc1ccc(-c2cn3c(NC(C)=O)cccc3[n+]2C)cc1 | 1.1
O=C1Nc2ccccc2CN1CCC1CCN(Cc2ccccc2)CC1 | 0.013
C[n+]1c(-c2ccccc2)cn2cc(C(N)=O)ccc21 | 9.5

Structure (SMILES) | IC50 [µM]
Fc1ccc2c(NCCCCCCCNc3c4c(nc5cc(F)ccc35)CCCC4)c3c(nc2c1)CCCC3 | 0.0006
c1ccc2c(NCCCCCCCNc3c4c(nc5ccccc35)CCCC4)ccnc2c1 | 0.0101
CCCCCCNC(=O)Oc1ccc2c(c1)[C@]1(C)CCN(CC)[C@@H]1C2 | 0.045
O=C(CCC1CCN(Cc2ccc(Cl)cc2)CC1)c1ccc2c(c1)CCN2 | 6.36
c1ccc(CN2CCC(CCN3CCc4ccccc4C3)CC2)cc1 | 1.6
O=C1Cc2ccccc2C(=O)N1CCC1CCN(Cc2ccccc2)CC1 | 0.023
NCCCCCCCCCNc1c2c(nc3ccccc13)CCCC2 | 0.131
CN(C)CCCCCCCNc1c2c(nc3ccccc13)CCCC2 | 0.052
O=C(Cc1c[nH]c2ccc(Br)cc12)NCCCCCCCNc1c2c(nc3cc(Cl)ccc13)CCCC2 | 0.0006
Nc1ccc2c(c1)c(-c1ccccc1)[n+](CCCNCCCNCCCNc1c3c(nc4ccccc14)CCCC3)c1cc(N)ccc21 | 0.00149
Cc1cccc2n1cc(-c1ccc(OC(=O)N(C)C)cc1)[n+]2C | 1.3
CCC(=O)N(CCC1CCN(Cc2ccccc2)CC1)c1ccccc1 | 0.83
O=[N+]([O-])c1ccc2nc3c(c(Nc4ccccc4)c2c1)CCCC3 | 1.6
CCCc1cc(N2CCC=N2)ccc1C(=O)ON=C(N)c1ccc(C(F)(F)F)cc1 | 13
COc1ccccc1CN(C)CCCCCC(=O)N(C)CCCCCCCCN(C)C(=O)CCCCCN(C)Cc1ccccc1OC [CAPROCTAMINE] | 0.104
CC(=O)N(CCC1CCN(Cc2ccccc2)CC1)c1cccc(F)c1 | 0.065
NCCCCCCCNc1c2c(nc3ccccc13)CCCC2 | 0.319
COc1cccc2n1cc(-c1ccc(OC(=O)N(C)C)cc1)[n+]2C | 8.1
c1ccc(-c2cnc(NCN3CCCCC3)nc2)cc1 | 100
O=C(CCC1CCN(Cc2ccccc2)CC1)c1ccc2c(c1)NCC2 | 0.113
CNC(=O)Oc1cccc(CN(C)CCCCCCCOc2ccc3c(c2)C/C(=C\c2cc(O)c(O)c(O)c2)C3=O)c1 | 0.0018
Fc1ccc2c(NCCCCCCCCNc3c4c(nc5cc(F)ccc35)CCCC4)c3c(nc2c1)CCCC3 | 0.0007
CCCCCCNC(=O)Oc1cccc(CN(CCCOc2ccc3c(=O)c4ccccc4oc3c2)C(C)C)c1 | 0.17
O=C1c2ccccc2NCN1CCC1CCN(Cc2ccccc2)CC1 | 0.8
CCN1CC[C@@]2(C)c3cc(OC(=O)NC(C)c4ccccc4)ccc3C[C@@H]12 (stereo not given in full) | 1.33
O=C(Nc1cccc2c1C(=O)N(CCC1CCN(Cc3ccccc3)CC1)C2=O)c1ccccc1 | 0.34
